Data published in US10883994B2, “Identification of cancer stem cells markers and use of same for diagnosis and treatment” (Tel HaShomer Medical Research Infrastructure and Services …, priority 2014, dated 2021).
“Also recorded” adds a separate entry of the source.

Legend:
MRT cells (ATRT cells) [1] = assay: Cell migration assay (scrape); type: cell-based, human; details: 100 μM BAPN, 48 h
Method: Cell migration assay: Cells were grown overnight, after which the medium was changed and supplemented with 100 μM BAPN. After 48 hours, a scrape was made through the confluent monolayers with a plastic 1 ml pipette tip. Treated and control cells were then photographed at identical time points (24 and 48 hours).

[2] = tested on: ATRT Xn cells (MRT cells); assay: MTS cell viability assay on MRT/ATRT Xn cells; type: cell-based, human; details: 100 μM BAPN, 48 h
Method: (§1) MTS—cell viability assay: 5×10^3 cells were plated in triplicates and grown in 96-well plates over-night. The following day the medium was changed and supplemented with various concentrations of BAPN and the cells were further incubated for 48 h. Cell proliferation was measured using CellTiter 96 Aqueous One Solution Cell Proliferation Assay (Promega) according to the manufacturer's instructions. Briefly, the cells were incubated with the MTS solution for 3 hours at 37° C. and absorbance at 492 nm was determined using a microplate reader. Three independent experiments were carried out.

[3] = target: T1, LOX (lysyl oxidase) in ATRT cells (Homo sapiens, UniProt P28300); assay: LOX activity assay (Amplex Red fluorescence); type: biochemical; details: 100 μM BAPN
T1 construct: endogenous in cells
T1 sequence (P28300 169-417): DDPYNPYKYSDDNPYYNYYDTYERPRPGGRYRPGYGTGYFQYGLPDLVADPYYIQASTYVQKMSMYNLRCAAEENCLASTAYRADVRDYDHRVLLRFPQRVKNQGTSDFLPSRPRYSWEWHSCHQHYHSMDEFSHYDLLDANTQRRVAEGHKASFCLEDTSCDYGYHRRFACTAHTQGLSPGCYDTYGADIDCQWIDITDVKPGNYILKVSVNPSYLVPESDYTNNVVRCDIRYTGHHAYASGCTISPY
Method: LOX Activity Assays: The LOX enzyme activity was measured using the Amplex Red fluorescence assay (AAA Bioquest, 15255), as previously described (15843371). The assay reaction mixture consisted of 50 mM sodium borate (pH 8.2), 1.2 M urea, 50 µM Amplex Red, 0.1 units/ml horseradish peroxidase, and 10 mM 1,5-diaminopentane (cadaverine) substrate. The protein samples were added to the reaction mix, in the presence or absence of 100 μM BAPN, which was then incubated at 37° C. for 30 minutes. The fluorescent product was measured at 590 nm using an […] microplate reader.

MRT cells (ATRT cells) [4] = assay: Morphology of MRT/ATRT cells after BAPN treatment; type: cell-based, human
[5] = tested on: Wilms' tumor (WT) Xn cells; assay: MTS cell viability assay on Wilms' tumor Xn cells; type: cell-based, human; details: Wilms' tumor Xn cells serially propagated in mice
Method: as §1

[6] = intermediate Xn passage (P10) MRT cells

## N#CCCN [BAPN, β-Aminopropionitrile]
MRT cells (ATRT cells) [1]; P2 cells
  ATRT cell migration capacity compared to un-treated cells: significant inhibited
MRT cells (ATRT cells) [1]; [6]
  MRT cell migration capacity compared to un-treated cells: significant inhibited; also recorded: significantly inhibited
[2]; P2 Xn cells
  proliferation in comparison to UT cells (MTS cell viability): 47%
[2]; intermediate Xn passage (P10) cells, three different experiments
  proliferation (MTS cell viability): significantly reduced proliferation
[3]
  LOX activity (in words): significantly inhibited LOX activity
[3]; P3 cells
  inhibition of LOX activity: 81%
[3]; P10 cells
  inhibition of LOX activity: 63%
MRT cells (ATRT cells) [4]; P2 cells
  morphological changes on ATRT cells: nuclear condensation and cell swallowing
MRT cells (ATRT cells) [4]; [6]
  morphological changes on MRT cells: nuclear condensation and cell swallowing
[5]
  effect on WT cell proliferation: no effect on WT cell proliferation
